From ChEMBL document CHEMBL1201862, “PubChem BioAssay data set” (2004) come the findings set out here.

Test systems include HCC 2998; OVCAR-5; 786-0; HL-60; SF-268; SF-539; EKVX; CCRF-CEM; RPMI-8226; CAKI-1; NCI-H460; HOP-92; LOX IMVI; SK-MEL-2; SK-MEL-28; RXF 393; UACC-62.
Holding throughout (assay): NCI tumour cell line growth inhibition, 48 h

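48-hour exposure; five concentrations; linearly interpolated endpoints. At the GI50, growth is halved.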 Active and inactive are the calls of the source. No stated cut-off is given here; in the data, active = GI50 up to about 1.1 µM and inactive = higher.

As to `COC(=O)CC(c1ccccc1)C1(c2ccccc2)SCCS1` (configuration not stated), the GI50 is > 290 µM (inactive) with HCC 2998; > 290 µM (inactive) with OVCAR-5; > 290 µM (inactive) in the assay on 786-0; 141 µM (inactive) with HL-60; 150 µM (inactive) in the assay with SF-268; > 290 µM (inactive) in the assay with SF-539. For the same molecule, the GI50 in the assay with EKVX was > 290 µM (inactive); in the assay on CCRF-CEM it was 105 µM (inactive); with RPMI-8226 it was 21.2 µM (inactive); with CAKI-1 it was 262 µM (inactive); in the assay on NCI-H460, 261 µM (inactive); in the assay on HOP-92, 12.6 µM (inactive). Further, the GI50 in the assay on LOX IMVI was 130 µM (inactive); in the assay on SK-MEL-2, 261 µM (inactive); in the assay with SK-MEL-28 it was > 290 µM (inactive); with RXF 393, > 290 µM (inactive); in the assay on UACC-62, 142 µM (inactive).

With `Cc1ccccc1NC(=O)C(=O)CC(=O)c1sc(-n2nc(-c3ccccc3)cc2-c2ccccc2)nc1C`, the GI50 in the assay on HCC 2998, in the assay with OVCAR-5, in the assay on 786-0, in the assay on HL-60, in the assay on SF-268 and with SF-539 was > 100 µM (inactive) in each case. Also, the GI50 in the assay with EKVX, with CCRF-CEM, in the assay on RPMI-8226, in the assay with CAKI-1, in the assay on NCI-H460 and in the assay on HOP-92 was > 100 µM (inactive) each time. The GI50 with LOX IMVI, in the assay with SK-MEL-2, in the assay with RXF 393 and in the assay with UACC-62 was > 100 µM (inactive) throughout.

Turning to `COC(=O)c1nn(C(=N)c2ccc(Cl)cc2)c2c1CCC2`, the GI50 with HCC 2998, in the assay with OVCAR-5, in the assay with 786-0, in the assay on HL-60, with SF-268 and in the assay with SF-539 was > 100 µM (inactive) in each case. The GI50 in the assay with CCRF-CEM, in the assay with RPMI-8226, in the assay with CAKI-1, in the assay with NCI-H460, with HOP-92 and in the assay on LOX IMVI was > 100 µM (inactive) throughout. In addition, the GI50 with SK-MEL-2, in the assay on SK-MEL-28, with RXF 393 and in the assay with UACC-62 was > 100 µM (inactive) each time.

With `COC1C=COC2(C)Oc3c(C)c(O)c4c(O)c(c(/C=N/N5CCN(N)CC5)c(O)c4c3C2=O)NC(=O)C(C)=CC=CC(C)C(O)C(C)C(O)C(C)C(OC(C)=O)C1C` (configuration not stated), the GI50 in the assay with HCC 2998 is > 100 µM (inactive); in the assay on OVCAR-5, > 100 µM (inactive); in the assay with 786-0 it was > 100 µM (inactive); with HL-60, 35.2 µM (inactive); with SF-268 it was 62.5 µM (inactive); with SF-539, > 100 µM (inactive). Also, the GI50 in the assay with EKVX is > 100 µM (inactive); in the assay on CCRF-CEM, 20.1 µM (inactive); in the assay on RPMI-8226 it was 29.7 µM (inactive); in the assay on CAKI-1 it was > 100 µM (inactive); in the assay with HOP-92 it was 65.6 µM (inactive); in the assay with LOX IMVI, 69 µM (inactive). The GI50 is > 100 µM (inactive) in the assay with SK-MEL-2, 34.4 µM (inactive) in the assay on SK-MEL-28, 34.7 µM (inactive) in the assay on RXF 393 and > 100 µM (inactive) with UACC-62.

For `O=C1C(=O)N(c2cc(Cl)ccc2Cl)C(=O)C(=O)C1c1nc2ccccc2s1`, the GI50 is > 100 µM (inactive) in the assay with OVCAR-5; > 100 µM (inactive) in the assay on 786-0; > 100 µM (inactive) in the assay on HL-60; 86.5 µM (inactive) with SF-268; > 100 µM (inactive) in the assay on SF-539; > 100 µM (inactive) in the assay with EKVX. The GI50 with CCRF-CEM was 62.4 µM (inactive); in the assay with RPMI-8226, > 100 µM (inactive); in the assay on CAKI-1, > 100 µM (inactive); with NCI-H460 it was > 100 µM (inactive); with HOP-92, 24.4 µM (inactive); with LOX IMVI, > 100 µM (inactive). Besides, the GI50 in the assay with SK-MEL-2, in the assay on SK-MEL-28, with RXF 393 and with UACC-62 was > 100 µM (inactive) in each case.

For the molecule `CC1(C)COC(c2ccc(C(F)(F)F)cc2C(O)c2ccc3ccccc3c2)=N1` (configuration not stated), the GI50 in the assay on HCC 2998 is > 10 µM (inactive); with OVCAR-5 it was > 10 µM (inactive); in the assay on 786-0, > 10 µM (inactive); in the assay on HL-60 it was 78.3 µM (inactive); with SF-268, 82 µM (inactive); with SF-539 it was 64.4 µM (inactive). The GI50 with EKVX is > 10 µM (inactive); in the assay on CCRF-CEM it was > 10 µM (inactive); in the assay on RPMI-8226, > 100 µM (inactive); in the assay with CAKI-1, 94.6 µM (inactive); with NCI-H460, > 10 µM (inactive); in the assay with HOP-92, 41.4 µM (inactive). For the same molecule, the GI50 with LOX IMVI was > 10 µM (inactive); in the assay on SK-MEL-2, > 10 µM (inactive); in the assay with SK-MEL-28, > 10 µM (inactive); in the assay with RXF 393 it was 16 µM (inactive); in the assay with UACC-62, > 10 µM (inactive).

For the molecule `CN(C)CCCOc1ccc(/C=C2/CCC/C(=C/c3ccc(OCCCN(C)C)cc3)C2=O)cc1`, the GI50 in the assay on HCC 2998 is 1.7 µM (inactive); with OVCAR-5, 0.239 µM (active); in the assay with 786-0 it was 1.3 µM (inactive); in the assay with HL-60, 1.97 µM (inactive); with SF-268, 2 µM (inactive); in the assay with SF-539 it was 1.6 µM (inactive). Besides, the GI50 with EKVX is 3.95 µM (inactive); in the assay on CCRF-CEM it was 0.824 µM (active); in the assay on RPMI-8226 it was 1.26 µM (inactive); with NCI-H460, 2.07 µM (inactive); in the assay on HOP-92 it was 1.16 µM (inactive); with LOX IMVI, 1.51 µM (inactive). Besides, the GI50 in the assay on SK-MEL-2 is 2.03 µM (inactive); in the assay on SK-MEL-28, 1.79 µM (inactive); with RXF 393, 1.61 µM (inactive); in the assay on UACC-62, 1.91 µM (inactive).

As for `CN(c1n[n+]2c(-c3ccccc3)csc2s1)c1n[n+]2c(-c3ccccc3)csc2s1`, the GI50 with HCC 2998 is > 100 µM (inactive); in the assay with OVCAR-5, > 100 µM (inactive); in the assay on 786-0, > 100 µM (inactive); with HL-60, 47.6 µM (inactive); in the assay on SF-268, > 100 µM (inactive); with SF-539, > 100 µM (inactive). The GI50 was > 100 µM (inactive) in the assay with EKVX; 68.9 µM (inactive) in the assay with CCRF-CEM; > 100 µM (inactive) with RPMI-8226; > 100 µM (inactive) in the assay with NCI-H460; > 100 µM (inactive) with HOP-92; > 100 µM (inactive) in the assay with LOX IMVI. For the same molecule, the GI50 in the assay with SK-MEL-2, with SK-MEL-28, with RXF 393 and in the assay on UACC-62 was > 100 µM (inactive) throughout.

Regarding `COc1ccc(/C=C2\CCC(CCN(C)C)(C3=CCCC3)C2=O)cc1` (configuration not stated), the GI50 in the assay with HCC 2998 is 18.6 µM (inactive); with OVCAR-5 it was 21.5 µM (inactive); in the assay on 786-0, 15.3 µM (inactive); in the assay with HL-60, 15.9 µM (inactive); with SF-268, 18.2 µM (inactive); in the assay on SF-539 it was 16.1 µM (inactive). The GI50 is 14 µM (inactive) in the assay on EKVX; 17.1 µM (inactive) with CCRF-CEM; 20.8 µM (inactive) with RPMI-8226; 10.7 µM (inactive) in the assay on CAKI-1; 20.1 µM (inactive) in the assay on NCI-H460; 20.7 µM (inactive) in the assay with HOP-92. Also, the GI50 with LOX IMVI is 16.6 µM (inactive); with SK-MEL-2, 17.6 µM (inactive); with SK-MEL-28, 19 µM (inactive); in the assay with RXF 393, 7.6 µM (inactive); in the assay on UACC-62, 16.4 µM (inactive).
